Source: patent US6372209B1, “Vaginal lactobacillus medicant” (Gyne Logix, Inc., priority 1997, dated 2002)

What was measured:
[1] = tested on: vaginal epithelial cells (VECs); assay: In vitro adherence to vaginal epithelial cells (frozen VECs, McIlvaine's buffer pH 4.5, Gram stain count); format: cell-based, human; conditions: for average adherence value: 8 VEC donors
Protocol: (1.2) Adherence to vaginal epithelial cells (VECs): Immediately after sampling, vaginal epithelial cells were transferred to MEM tissue culture medium, pH 7.2, washed 3 times in a syringe and passed through a 8μ filter (Millipore) which retains vaginal cells but passes bacteria. A total of 10^5 washed vaginal cells were added to a suspension of 10^9 Lactobacilli/ml (enumerated with a counting chamber) and incubated for 2.5 hours at 37° C. After washing and filtering to remove unattached Lactobacilli, the vaginal cells were stained using Gram stain. The number of Lactobacilli that adhered to the epithelial cells was counted and recorded using a light microscope equipped with a camera. Both the mean number of Lactobacilli cells adhered per VEC (average adherence value) and the percent VEC cohesion value, as described above, were calculated. The percent VEC cohesion value, defined as the percentage of VECs to which at least one Lactobacillus cell is adhered of the total number of VECs in an identified group, was used to determine whether a particular strain would be selected as having a desirable adherence characteristic. Since ongoing adherence studies required a constant supply of vaginal epithelial cells, the vaginal epithelial cells were pre-washed and stored at −70° C. until time of use.
Table 1 and Table 2 show the in vitro adherence studies using frozen VECs from donors representing the most prevalent ABO blood types. […] Strain CTV-05 (Lot LB-022) was preserved in suppository format as described in detail in Example 3. Suppositories were stored at both room (RT) and refrigerator (Ref.) temperatures for 5.5 months prior to testing. It is important to note that the cells of strain CTV-05 used in these studies were not in an actively growing metabolic state. Rather, a suppository containing CTV-05 was placed directly into McIlvaine's buffer (pH 4.5) without pregrowing the microbial cells to an active state. The cells were then directly added to VECs. Results are shown as (1) the logarithmic mean adherence of CTV-05 per 50 VECs (X ±1 standard deviation), (2) as the actual range of adhered CTV-05 per VEC in a total count of 50 VECs, and (3) as the percent VEC cohesion value (% VEC ADH). The description of terms in Table 1 is as follows: ^1X±STD=logarithmic mean adherence of LAB per 50 VEC, +1 standard deviation; ^2 Range=actual range of adhered LAB per VEC in a total count of 50 VECs; ^3% VEC ADH=percent of 50 VECs showing adherence of LAB strain CTV-05, Lot LB-022, stored for 5.5 months at refrigerated (Ref.) and/or room temperature (RT); and *Nursing Mother.
The buffer was then added directly to previously frozen VECs from human donors. Actively growing CTV-05 was also added to previously frozen VECs.

H2O2 production = assay: Production of H2O2 (TMB medium or EM strips); conditions: gelatin capsule suppository, storage period up to 25 months
Protocol: (1.4) Production of H2O2: Strains were inoculated onto tetramethylbenzidine medium (TMB) and incubated at 37° C. for 2-3 days under anaerobic conditions. H2O2-producing colonies produce a blue pigment upon exposure to ambient air. Alternatively, H2O2-detecting strips from EM Science were used. The reagent impregnated portion of the strip was applied to a Lactobacillus colony and the intensity of the resulting blue color served as a quantitative measure of H2O2 concentration.

[2] = tested on: women who had bacterial vaginosis; assay: Suppository as treatment for bacterial vaginosis; format: in vivo, human
Text: In this study, 13 women who had bacterial vaginosis were given Lactobacillus crispatus CTV-05 suppositories twice daily for seven days. The purpose of this study was to evaluate whether Lactobacillus suppositories could be used as a treatment for bacterial vaginosis. Only 1 of 10 women who returned for follow-up was cured of bacterial vaginosis at the one week follow-up visit.

[3] = Active LAB, donor A+, cycle day 3, Gram stain score 4
[4] = Active LAB, donor A+, cycle day 17, Gram stain score 9
[5] = Active LAB, donor A+, cycle day 37, Gram stain score 8
[6] = Active LAB, donor AB+, cycle day 24, Gram stain score 4
[7] = Active LAB, donor A−, cycle day 8 mos., Gram stain score 4
[8] = Active LAB, donor B+, cycle day 13, Gram stain score 9
[9] = Active LAB, donor O+, cycle day 7, Gram stain score 2
[10] = Active LAB, donor O+, cycle day 7, Gram stain score 4
[11] = Active LAB, donor O+, cycle day 15, Gram stain score 2
[12] = Active LAB, donor O+, cycle day 20, Gram stain score 6
[13] = Active LAB, frozen VECs, 10 donors
[14] = Inactive LAB, Agar, donor A+, cycle day 3, Gram stain score 4
[15] = Inactive LAB, Agar, donor A+, cycle day 37, Gram stain score 8
[16] = Inactive LAB, Agar, donor AB+, cycle day 24, Gram stain score 4
[17] = Inactive LAB, Agar, donor B+, cycle day 13, Gram stain score 9
[18] = Inactive LAB, Agar, donor O+, cycle day 7, Gram stain score 2
[19] = Inactive LAB, Agar, donor O+, cycle day 15, Gram stain score 2
[20] = Inactive LAB, Agar, donor O+, cycle day 20, Gram stain score 6
[21] = Inactive LAB, Agar, frozen VECs
[22] = Inactive LAB, Broth, donor A+, cycle day 3, Gram stain score 4
[23] = Inactive LAB, Broth, donor A+, cycle day 17, Gram stain score 9
[24] = Inactive LAB, Broth, donor A+, cycle day 37, Gram stain score 8
[25] = Inactive LAB, Broth, donor AB+, cycle day 24, Gram stain score 4
[26] = Inactive LAB, Broth, donor A−, cycle day 8 mos., Gram stain score 4
[27] = Inactive LAB, Broth, donor B+, cycle day 13, Gram stain score 9
[28] = Inactive LAB, Broth, donor O+, cycle day 7, Gram stain score 2
[29] = Inactive LAB, Broth, donor O+, cycle day 7, Gram stain score 4
[30] = Inactive LAB, Broth, donor O+, cycle day 15, Gram stain score 2
[31] = Inactive LAB, Broth, donor O+, cycle day 20, Gram stain score 6
[32] = Inactive LAB, Broth, frozen VECs, 10 donors

Lactobacillus crispatus CTV-05
% VEC ADH [1, 3]: 94% | X ± 1 STD (logarithmic mean adherence of LAB per 50 VEC) [1, 3]: 17.7 ± 3.2 | % VEC ADH [1, 4]: 66% | X ± 1 STD (logarithmic mean adherence of LAB per 50 VEC) [1, 4]: 13.0 ± 5.0 | % VEC ADH [1, 5]: 94% | Range (adhered LAB per VEC) [1, 5]: 0-133 LAB per VEC | X ± 1 STD (logarithmic mean adherence of LAB per 50 VEC) [1, 5]: 8.5 ± 3.3 | % VEC ADH [1, 6]: 70% | Range (adhered LAB per VEC) [1, 6]: 0-109 LAB per VEC | X ± 1 STD (logarithmic mean adherence of LAB per 50 VEC) [1, 6]: 5.1 ± 3.4 | % VEC ADH [1, 7]: 96% | X ± 1 STD (logarithmic mean adherence of LAB per 50 VEC) [1, 7]: 52.1 ± 3.6 | % VEC ADH [1, 8]: 68% | Range (adhered LAB per VEC) [1, 8]: 0-61 LAB per VEC | X ± 1 STD (logarithmic mean adherence of LAB per 50 VEC) [1, 8]: 5.7 ± 3.3 | % VEC ADH [1, 9]: 94% | X ± 1 STD (logarithmic mean adherence of LAB per 50 VEC) [1, 9]: 51.9 ± 3.0 | % VEC ADH [1, 10]: 92% | X ± 1 STD (logarithmic mean adherence of LAB per 50 VEC) [1, 10]: 36.3 ± 2.7 | % VEC ADH [1, 11]: 96% | Range (adhered LAB per VEC) [1, 11]: 0-216 LAB per VEC | X ± 1 STD (logarithmic mean adherence of LAB per 50 VEC) [1, 11]: 16.4 ± 4.0 | % VEC ADH [1, 12]: 100% | Range (adhered LAB per VEC) [1, 12]: 1-122 LAB per VEC | X ± 1 STD (logarithmic mean adherence of LAB per 50 VEC) [1, 12]: 14.1 ± 2.3 | Overall Averages # LAB/VEC [1, 13]: 22.1 LAB/VEC | Overall Averages % Adherence [1, 13]: 77.6% | Range (adhered LAB per VEC) [1, 14]: 14-200 LAB per VEC | X ± 1 STD (logarithmic mean adherence of LAB per 50 VEC) [1, 14]: 96.1 ± 2.3 | % VEC ADH [1, 15]: 100% | X ± 1 STD (logarithmic mean adherence of LAB per 50 VEC) [1, 15]: 58.9 ± 2.1 | % VEC ADH [1, 16]: 100% | X ± 1 STD (logarithmic mean adherence of LAB per 50 VEC) [1, 16]: 47.3 ± 2.5 | % VEC ADH [1, 17]: 100% | X ± 1 STD (logarithmic mean adherence of LAB per 50 VEC) [1, 17]: 19.4 ± 3.9 | % VEC ADH [1, 18]: 100% | X ± 1 STD (logarithmic mean adherence of LAB per 50 VEC) [1, 18]: 21.4 ± 2.5 | % VEC ADH [1, 19]: 38% | Range (adhered LAB per VEC) [1, 19]: 0-11 LAB per VEC | X ± 1 STD (logarithmic mean adherence of LAB per 50 VEC) [1, 19]: 1.9 ± 2.1 | % VEC ADH [1, 20]: 200% | X ± 1 STD (logarithmic mean adherence of LAB per 50 VEC) [1, 20]: 60.9 ± 2.1 | Overall Averages # LAB/VEC [1, 21]: 43.7 LAB/VEC | Overall Averages % Adherence [1, 21]: 91.1% | % VEC ADH [1, 22]: 46% | X ± 1 STD (logarithmic mean adherence of LAB per 50 VEC) [1, 22]: 6.4 ± 3.9 | % VEC ADH [1, 23]: 38% | X ± 1 STD (logarithmic mean adherence of LAB per 50 VEC) [1, 23]: 3.1 ± 3.2 | % VEC ADH [1, 24]: 98% | X ± 1 STD (logarithmic mean adherence of LAB per 50 VEC) [1, 24]: 10.9 ± 3.6 | % VEC ADH [1, 25]: 72% | Range (adhered LAB per VEC) [1, 25]: 0-178 LAB per VEC | X ± 1 STD (logarithmic mean adherence of LAB per 50 VEC) [1, 25]: 7.1 ± 3.5 | % VEC ADH [1, 26]: 99% | Range (adhered LAB per VEC) [1, 26]: 0-56 LAB per VEC | X ± 1 STD (logarithmic mean adherence of LAB per 50 VEC) [1, 26]: 6.5 ± 3.0 | % VEC ADH [1, 27]: 60% | X ± 1 STD (logarithmic mean adherence of LAB per 50 VEC) [1, 27]: 7.3 ± 4.7 | % VEC ADH [1, 28]: 100% | Range (adhered LAB per VEC) [1, 28]: 1-96 LAB per VEC | X ± 1 STD (logarithmic mean adherence of LAB per 50 VEC) [1, 28]: 5.7 ± 2.8 | % VEC ADH [1, 29]: 92% | Range (adhered LAB per VEC) [1, 29]: 0-96 LAB per VEC | X ± 1 STD (logarithmic mean adherence of LAB per 50 VEC) [1, 29]: 7.8 ± 3.1 | % VEC ADH [1, 30]: 80% | X ± 1 STD (logarithmic mean adherence of LAB per 50 VEC) [1, 30]: 6.9 ± 3.3 | % VEC ADH [1, 31]: 100% | Range (adhered LAB per VEC) [1, 31]: 1-66 LAB per VEC | X ± 1 STD (logarithmic mean adherence of LAB per 50 VEC) [1, 31]: 15.9 ± 3.1 | Overall Averages # LAB/VEC [1, 32]: 7.76 LAB/VEC | Overall Averages % Adherence [1, 32]: 78.4% | average adherence value ([1]; cells stored at refrigerated temperatures): 24.3 cells/VEC | adherence of inactive (preserved state) cells compared with metabolically active cells ([1]; frozen VECs, McIlvaines Buffer pH 4.5): equally well or better | average adherence value ([1]; room temperature stored cells): 21.9 cells/VEC | percent VEC cohesion value, average ([1]; stored at refrigerated temperature): 97.75% | percent VEC cohesion value, average ([1]; stored at room temperature): 97% | H2O2 production during storage (H2O2 production): remained stable | women successfully colonized by the suppository strain ([2]; suppositories twice daily for seven days, follow-up): 7 of the 10 | women cured of bacterial vaginosis ([2]; suppositories twice daily for seven days, one week follow-up visit): 1 of 10 | side-effects ([2]; twice daily for seven days): None of the women experienced any side-effects | visual or microscopic evidence of inflammation ([2]; twice daily for seven days): none had either visual or microscopic evidence of inflammation
